{"source": "patent US11602514B2", "about": "“Medicament having anti-inflammatory bowel disease function, and preparation method therefor and application thereof” (SUZHOU PHARMAVAN CO., LTD, priority 2018, dated 2023)", "key": {"[1]": {"test_system": "IL-6 secreted by mouse macrophages RAW264.7 induced by LPS", "assay": "IL-6 secreted by LPS-induced RAW264.7 macrophages (ELISA)", "format": "cell-based", "details": "LPS 100 ng/mL, 24 h; FIG. 5", "method": "Effects of myricanol derivatives on the expression of inflammatory factors such as IL-6, TNF-α, PEG2 secreted by a mouse macrophage cell strain RAW 264.7 induced by bacterial lipopolysaccharide (hereinafter referred to as LPS) stimulus: A pre-prepared cell suspension was inoculated in a 96-well plate at 15000 cells/well and 100 μl/well and cultured overnight in an incubator with 5% CO2 at 37° C. At 80% cell confluence, the original culture medium was discarded, and each well was added with 100 μl of prepared drug solution to be tested with a different concentration, cultured for 1 h, and then added with a LPS solution, where the final concentration of LPS in the culture system was 100 ng/mL. Each concentration was set with 3 parallel wells, and a cell control group (no drug and no solvent) and a blank medium control group (no cells, a well for zero adjustment) were set. They were cultured for another 24 h. Cell culture supernatants were aspirated, and an R&D ELISA detection kit (M6000B; MTA00B; VAL601) was used for detecting the expression of the inflammatory factors such as IL-6, TNF-α, and PEG2 in each group. Cell proteins were collected, and a […] method was used for detecting COX-2 protein expression in each group."}, "[2]": {"test_system": "SD rats", "assay": "acute toxicity, single oral dose", "format": "in vivo", "details": "single intragastric administration, 14 days observation", "description": "Trial method: 30 SD rats, half male and half female, were used. The average weight was 160-200 g for female rats and 180-220 g for male rats when grouped. An individual weight should be within ±20% of the average weight. Before the test, animals needed to accommodate to the environment for at least 5 days, and healthy rats (female rats should be not pregnant) were selected as test animals. Matter detected during the accommodation period mainly was: whether the rats were consistent with quality indexes required in the order; detection of general conditions; and whether the weight was within the weight range required by the test. Unqualified abnormal animals were excluded from the test. A single dosage was orally administered to rats at a low, medium, or high dose. […] A control group was set with the oral administration of the same volume of solvent.\nThe rats were observed about 0-2 h and 4-6 h after each administration. If a toxicity symptom occurs, the rats may be observed more times. (2) Gross anatomical observation: on the 14th day of the test, all surviving rats in each group were dissected and observed, and for administration sites and gross dissection, abnormal organs and tissues which were observed and found to be potentially related to test samples were photographed and recorded. (3) Disposal of dying animals: status of rats and observation time were recorded, and their weights were measured. (4) Disposal of dead animals: the time of death or when a rat was found dead were recorded. The rat was measured for weight before quickly dissected for gross observation and speculated for a cause of death."}}, "data": [{"smiles": "COc1c2cc(c(O)c1OC)CCCCC(OS(=O)(=O)O)CCc1ccc(O)c-2c1", "note": "(centres unmarked) [compound H, 11-sulfonyloxy myricanol]", "values": [{"measurement": "inhibition of LPS-induced IL-6 secretion of RAW264.7 cells", "setting": "[1]", "result": "very strong effects of inhibiting"}, {"measurement": "Test Endpoint (toxic side effects)", "setting": "[2]; 100 mg/kg", "result": "No obvious toxic"}, {"measurement": "Test Endpoint (toxic side effects)", "setting": "[2]; 300 mg/kg", "result": "No obvious toxic"}, {"measurement": "Test Endpoint (toxic side effects)", "setting": "[2]; 1000 mg/kg", "result": "No obvious toxic"}, {"measurement": "Test Endpoint (toxic side effects)", "setting": "[2]; 1500 mg/kg", "result": "No obvious toxic"}]}]}
